Among the test systems are MDA-MB-231; SF-268; MDA-N; BT-549; UACC-62; HCT-116; T47D; OVCAR-5; Hs-578T; OVCAR-8; HL-60; SF-539; DU-145; MDA-MB-435; PC-3; SF-295; HT-29.
Common to all, as to assay: inhibition of tumour cell growth, NCI panel, 48 h

Molecules are shown by their SMILES.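 Each compound was tested at five concentrations against cells in 96-well plates for 48 hours. GI50 = concentration required for 50% inhibition of growth.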 Activity calls are given as the source filed them. Rule as the data show it: active = GI50 up to about 1.1 µM and inactive = higher.

For the molecule `Cc1ccc(C2(O)c3ccccc3C(=O)N(C)C2(O)c2ccc(C)cc2)cc1` (stereo not drawn), the GI50 in the assay on MDA-MB-231 is 28.2 µM (inactive); with SF-268 it was 21.2 µM (inactive); with MDA-N, > 100 µM (inactive); in the assay on BT-549, 91.8 µM (inactive); in the assay on UACC-62, > 100 µM (inactive); with HCT-116, 49.2 µM (inactive). Also, the GI50 with T47D was > 100 µM (inactive); in the assay on OVCAR-5 it was > 100 µM (inactive); with Hs-578T, 22.6 µM (inactive); with OVCAR-8, 25.5 µM (inactive); in the assay on HL-60, 16.1 µM (inactive); in the assay with SF-539, 45.1 µM (inactive). For the same molecule, the GI50 was > 100 µM (inactive) in the assay with DU-145; > 100 µM (inactive) in the assay on MDA-MB-435; > 100 µM (inactive) in the assay on PC-3; 38.1 µM (inactive) in the assay with SF-295; 46.8 µM (inactive) in the assay with HT-29.
On to `COc1ccc(CC2COc3cc(O)cc(O)c3C2=O)cc1O` (stereo not drawn), for which the GI50 was 6.49 µM (inactive) in the assay on MDA-MB-231; 14.7 µM (inactive) in the assay on SF-268; 1.47 µM (inactive) with MDA-N; 82.2 µM (inactive) in the assay with BT-549; 8.57 µM (inactive) in the assay with UACC-62; 3.99 µM (inactive) in the assay on T47D. The GI50 was 12.3 µM (inactive) in the assay with OVCAR-5; 2.4 µM (inactive) in the assay with Hs-578T; 11.9 µM (inactive) in the assay on OVCAR-8; 2.4 µM (inactive) with HL-60; 2.97 µM (inactive) in the assay with SF-539; 9.48 µM (inactive) in the assay on DU-145. In addition, the GI50 in the assay with MDA-MB-435 was 1.32 µM (inactive); in the assay with PC-3, 7.08 µM (inactive); in the assay on SF-295 it was 4.3 µM (inactive); in the assay with HT-29 it was 13.6 µM (inactive).
Consider `O=Cc1cc(O)ccc1Br`, for which the GI50 in the assay with MDA-MB-231 was 36.1 µM (inactive); in the assay with SF-268, 9.93 µM (inactive); in the assay with MDA-N it was 3.1 µM (inactive); with BT-549, 11.6 µM (inactive); with UACC-62, 6.9 µM (inactive); with HCT-116, 3.31 µM (inactive). Further, the GI50 with T47D was 42.1 µM (inactive); with OVCAR-5, 32.1 µM (inactive); in the assay on Hs-578T, 9.31 µM (inactive); in the assay on OVCAR-8, 5.05 µM (inactive); with HL-60 it was 1.88 µM (inactive); with SF-539, 4.3 µM (inactive). Also, the GI50 was 44.7 µM (inactive) in the assay with DU-145; 2.5 µM (inactive) with MDA-MB-435; 13.2 µM (inactive) with PC-3; 7 µM (inactive) in the assay with SF-295; 18.2 µM (inactive) in the assay on HT-29.
With `CC1OC1C(=O)P(=O)(O)O` (stereo not drawn), the GI50 in the assay with MDA-MB-231, in the assay on SF-268, with MDA-N, in the assay on BT-549, in the assay with UACC-62 and with HCT-116 was > 100 µM (inactive) throughout. In addition, the GI50 in the assay with T47D, in the assay on OVCAR-5, in the assay on Hs-578T, in the assay with OVCAR-8, in the assay on HL-60 and with SF-539 was > 100 µM (inactive) each time. Moreover, the GI50 with DU-145, with MDA-MB-435, in the assay on PC-3 and with SF-295 was > 100 µM (inactive) in each case.
As for `COc1nc2c(N3CCCC3)nc(N3CCNCC3)nc2nc1NCc1ccccc1`, the GI50 in the assay with MDA-MB-231 is 1.63 µM (inactive); in the assay on SF-268, 2.03 µM (inactive); in the assay on MDA-N, 1.21 µM (inactive); with BT-549, 1.85 µM (inactive); in the assay on UACC-62 it was 1.86 µM (inactive); in the assay on HCT-116 it was 1.05 µM (active). The GI50 is 1.41 µM (inactive) with T47D; 2.61 µM (inactive) in the assay on OVCAR-5; 2.08 µM (inactive) with Hs-578T; 2.83 µM (inactive) with OVCAR-8; 1.68 µM (inactive) with HL-60; 1.75 µM (inactive) with SF-539. Further, the GI50 in the assay on DU-145 was 1.75 µM (inactive); with MDA-MB-435 it was 1.39 µM (inactive); with PC-3, 2.28 µM (inactive); with SF-295, 1.74 µM (inactive); in the assay on HT-29, 1.07 µM (active).
For the molecule `CC(C)CNc1nc2ncnc(N)c2[nH]1`, the GI50 in the assay with MDA-MB-231, with SF-268, in the assay with MDA-N, with BT-549, with UACC-62 and with HCT-116 was > 100 µM (inactive) each time. Also, the GI50 was > 100 µM (inactive) with T47D; > 100 µM (inactive) with OVCAR-5; > 100 µM (inactive) with Hs-578T; > 100 µM (inactive) in the assay with OVCAR-8; < 0.01 µM (active) with HL-60; > 100 µM (inactive) with SF-539. Further, the GI50 in the assay with DU-145, with MDA-MB-435, in the assay with PC-3, in the assay with SF-295 and with HT-29 was > 100 µM (inactive) throughout.
As to `N=C(N)NCC(N)C(=O)O` (stereo not drawn), the GI50 in the assay with MDA-MB-231, with SF-268, with MDA-N, with BT-549, with UACC-62 and with HCT-116 was > 100 µM (inactive) in each case. Also, the GI50 with T47D, in the assay on OVCAR-5, with Hs-578T, in the assay on OVCAR-8, with HL-60 and in the assay with SF-539 was > 100 µM (inactive) each time. The GI50 in the assay on DU-145, in the assay with MDA-MB-435, in the assay with PC-3, with SF-295 and in the assay on HT-29 was > 100 µM (inactive) in each case.
As for `O=C1c2ccccc2C2(c3ccc(Cl)cc3)N[C@H]3CCCC[C@@H]3N12` (stereo partly drawn), the GI50 in the assay on MDA-MB-231 was > 100 µM (inactive); in the assay with SF-268, 48.8 µM (inactive); in the assay with MDA-N, > 100 µM (inactive); in the assay on BT-549, > 100 µM (inactive); with UACC-62, > 100 µM (inactive); with HCT-116, 60.1 µM (inactive). Also, the GI50 with T47D is > 100 µM (inactive); in the assay on Hs-578T, 59.2 µM (inactive); in the assay with OVCAR-8 it was > 100 µM (inactive); in the assay with HL-60, 47.9 µM (inactive); with DU-145 it was > 100 µM (inactive); in the assay on MDA-MB-435, > 100 µM (inactive). Further, the GI50 was > 100 µM (inactive) with PC-3, > 100 µM (inactive) with SF-295 and 73.8 µM (inactive) in the assay on HT-29.
For `O=C(O)C(=C\c1ccc2c(c1)OCO2)/C(=C/c1ccc2c(c1)OCO2)C(=O)O`, the GI50 with MDA-N, in the assay with BT-549, in the assay on UACC-62, in the assay on HCT-116, in the assay with T47D and in the assay on OVCAR-5 was > 100 µM (inactive) in each case. Further, the GI50 in the assay with Hs-578T, in the assay on OVCAR-8, with HL-60, with DU-145, in the assay with MDA-MB-435 and in the assay with PC-3 was > 100 µM (inactive) in each case. Further, the GI50 in the assay on SF-295 and in the assay on HT-29 was > 100 µM (inactive) throughout.
On to `N[C@]1(C(=O)O)C[C@@H]2C(Br)=NO[C@@H]2C1`, for which the GI50 with MDA-MB-231 was > 100 µM (inactive); with SF-268, > 100 µM (inactive); in the assay on BT-549 it was > 100 µM (inactive); in the assay on UACC-62, > 100 µM (inactive); in the assay on HCT-116 it was 56 µM (inactive); in the assay with T47D it was > 100 µM (inactive). The GI50 in the assay on OVCAR-5, in the assay with Hs-578T, with OVCAR-8, in the assay with HL-60, in the assay on SF-539 and in the assay on DU-145 was > 100 µM (inactive) throughout. In addition, the GI50 with MDA-MB-435, in the assay on PC-3, with SF-295 and in the assay on HT-29 was > 100 µM (inactive) each time.
Turning to `N#CCCN(CCN(CCC#N)C(=O)Nc1ccccc1)C(=O)Nc1ccccc1`, the GI50 in the assay on MDA-MB-231 is > 100 µM (inactive); in the assay with SF-268, 28.5 µM (inactive); in the assay with MDA-N, > 100 µM (inactive); with BT-549 it was 31 µM (inactive); in the assay with UACC-62, > 100 µM (inactive); in the assay with HCT-116, 49.3 µM (inactive). Further, the GI50 was > 100 µM (inactive) in the assay with T47D; > 100 µM (inactive) with OVCAR-5; 33.8 µM (inactive) in the assay with Hs-578T; 57.5 µM (inactive) with OVCAR-8; > 100 µM (inactive) in the assay with HL-60; 76.9 µM (inactive) with DU-145. The GI50 in the assay on PC-3 was 69.3 µM (inactive); with SF-295 it was 31.8 µM (inactive); with HT-29, > 100 µM (inactive).
`COC1OC2COC1(OC)C1OC(C)(C)OC21` (stereo not drawn): the GI50 in the assay on MDA-MB-231, in the assay on SF-268, in the assay on MDA-N, with BT-549, with UACC-62 and in the assay with HCT-116 was > 100 µM (inactive) each time. Moreover, the GI50 in the assay with T47D, with OVCAR-5, in the assay with Hs-578T, in the assay on OVCAR-8, with DU-145 and in the assay on MDA-MB-435 was > 100 µM (inactive) in each case. Moreover, the GI50 in the assay with PC-3, in the assay with SF-295 and with HT-29 was > 100 µM (inactive) throughout.
Consider `FC(F)(F)c1ccc(/N=N/N2CCCC2)cc1`, for which the GI50 with MDA-MB-231, with SF-268, in the assay on MDA-N, in the assay on BT-549, in the assay with UACC-62 and in the assay on HCT-116 was > 100 µM (inactive) throughout. Further, the GI50 is 23.6 µM (inactive) in the assay with T47D; > 100 µM (inactive) in the assay with OVCAR-5; > 100 µM (inactive) with Hs-578T; > 100 µM (inactive) in the assay with HL-60; > 100 µM (inactive) in the assay on SF-539; > 100 µM (inactive) in the assay with DU-145. Moreover, the GI50 in the assay on MDA-MB-435, in the assay on PC-3, in the assay on SF-295 and with HT-29 was > 100 µM (inactive) in each case.

Values taken from ChEMBL document CHEMBL1201862, “PubChem BioAssay data set” (2004).
